Reference: patent US5344850A, “Topical composition for preventing or treating acne vulgaris” (Takasago International Corporation, priority 1992, dated 1994)
≈ marks a conversion by molar mass, not a printed value. Like-named read-outs stand apart in the source and are kept apart here.

Assays:
Propionibacterium acnes [1] = conditions: cited from earlier work
[2] = system: Staphylococcus epidermidis, Pseudomonas aeruginosa, Corynebacterium species, Aerobacter kleps and Candida albicans; conditions: in words; cited from earlier work
Propionibacterium acnes [3] = test: Minimum growth inhibitory concentration (MIC) on Propionibacterium acnes (Test Example 1); assay type: cell-based, Propionibacterium acnes (ATCC 6919); conditions: for MIC: Cutibacterium acnes; for Antibacterial activity (in words): inhibition of proliferation of Propionibacterium acnes, as compared with eugenol
Experimental: The minimum growth inhibitory concentrations (MIC) of the compounds (2) and (3) as obtained in Production Examples 1 and 2 on Propionibacterium acnes were determined in the following manner.
59.0 g of a GAM (Gifu anaerobic medium) bouillon medium (manufactured by Nissui Pharmaceutical Co., Ltd.) was dissolved in 1 liter of purified water and a test compound was added thereto so as to give a concentration of 100 μg/ml. A serial 2-fold dilution of the mixture thus obtained was made with the medium followed by sterilization. 10 ml portions of the mixture were pipetted into test tubes and each inoculated with 0.1 ml of Propionibacterium acnes (ATCC 6919) which had been pre-incubated to give a cell concentration of 1×10^8 cells/mi. After stationary incubation under anaerobic conditions for 48 hours, the turbidity was measured at a wavelength of 660 nm. […] For comparison, MIC of eugenol, which had been known as having a relatively strong antibacterial activity, on Propionibacterium acnes was determined.

[4] = Propionibacterium acnes, GAM bouillon medium, anaerobic, 48 hours, turbidity at 660 nm, read-out: MIC

For `CC(C)=CCCC(C)=CCCC(C)=CCO` [farnesol, 3,7,11-trimethyldodeca-2,6,10-trien-1-ol], the “antibacterial activity, used alone” value (Propionibacterium acnes [1]; farnesol used alone) is listed as “little activity”, the “antibacterial activity, used in combination” value (Propionibacterium acnes [1]; in combination with phenyl hydroxyalkyl ether and glycerol monolaurate) is listed as “exhibits an antibacterial activity” and the growth inhibitory effect [2] is listed as “exhibits a growth inhibitory effect”.

Work on `C=CCc1ccc(O)c(OC)c1` [eugenol] yielded an MIC (Propionibacterium acnes [3]; [4]) of 50 µg/mL (≈ 304 µM).

For `CC(C)=CCCC(C)=CCCC(C)=CCCC(C)O` (centres unmarked) [compound (3), 6,10,14-trimethyl-5,9,13-pentadecatrien-2-ol], the MIC (Propionibacterium acnes [3]; [4]) was 1.56 µg/mL (≈ 5.9 µM) and the “Antibacterial activity (in words)” value (Propionibacterium acnes [3]) was “intense antibacterial activity”.

With `CC(C)CCCC(C)CCCC(C)CCCC(C)O` (centres unmarked) [compound (2), 6,10,14-trimethylpentadecan-2-ol] the MIC (Propionibacterium acnes [3]; 48 h) was 3.13 µg/mL (≈ 11.6 µM) and the “Antibacterial activity (in words)” value (Propionibacterium acnes [3]) was “intense antibacterial activity”.
